LC retention time data for 60 compounds are collected here from the RepoRT retention time repository.

Counter-ions that a name gives are not always drawn.

The series in a line: RP, Waters ACQUITY Premier BEH C18, 100 × 2.1 mm, 1.7 µm, 40 °C, 0.3 to 0.4 mL/min, estimated dead time 0.73 min; A: water + 0.1% formic acid; B: acetonitrile + 0.1% formic acid; gradient (min/%B) 0/0.5 0.1/0.5 10/80 10.1/99.5 12/0.5 12.1/0.5 14.5/0.5. The settings on record: stereoisomer not certain.
As for `O=c1ccc2ccc(O)cc2o1` [UMBELLIFERONE], the LC retention time is 4.61 min. With `CC(=O)NCCCCN` [N-ACETYLPUTRESCINE], the LC retention time was 0.96 min. On to `O=C(OCC1=CC(O)C2C=COC(OC3OC(CO)C(O)C(O)C3O)C12)c1ccc(O)cc1` (stereo not given) [AGNUSIDE], for which the LC retention time was 4.2 min. The value for `Cc1cc(O)c2c(c1)C(=O)c1cc(O)cc(O)c1C2=O` [EMODIN] was 7.52 min; that for `COc1ccc(CC(=O)O)cc1OC` [HOMOVERATRIC ACID] was 5.34 min.

For `CCCCCCCCCCCCCC(=O)OC(CC(=O)[O-])C[N+](C)(C)C` (stereo not given) [TETRADECANOYLCARNITINE], the LC retention time was 7.44 min. The value for `Cc1cnc(=O)[nH]c1N` [5-METHYLCYTOSINE] was 0.94 min; that for `NC(=O)c1ccc[n+](C2OC(COP(=O)([O-])O)C(O)C2O)c1` (stereo not given) [NICOTINAMIDE MONONUCLEOTIDE] was 0.959 min; that for `COc1ccc2[nH]cc(CCN)c2c1` [5-METHOXYTRYPTAMINE] was 3.73 min. Consider `NC(Cc1cc(I)c(Oc2cc(I)c(O)c(I)c2)c(I)c1)C(=O)O` (stereo not given) [THYROXINE], for which the LC retention time was 6.62 min.

Regarding `CCC(NC(=O)CCC(N)C(=O)O)C(=O)NCC(=O)O` (stereo not given) [OPHTHALMATE], the LC retention time was 2.03 min.

`O=C(O)CCCCC(=O)O` [ADIPATE]: the LC retention time is 3.99 min. The same measure for `CC(C)=CCOc1c2occc2cc2ccc(=O)oc12` [IMPERATORIN]: 7.46 min; for `Cn1cnc2[nH]c(=O)[nH]c(=O)c21` [7-METHYLXANTHINE]: 1.2 min; for `COc1cc(CC2COC(=O)C2Cc2ccc(O)c(OC)c2)ccc1O` (single isomer, unassigned; (-)) [(-)-MATAIRESINOL]: 6.12 min. The value for `CSc1ncnc2nc[nH]c12` [THIOPURINE S-METHYLETHER] was 4.31 min; that for `O=C1CC(C(=O)O)NC(=O)N1` (stereo not given) [4,5-DIHYDROOROTIC ACID] was 1.12 min.

As to `NC(=O)c1ncn(C2OC(CO)C(O)C2O)c1N` (stereo not given) [AICA-RIBOSIDE], the LC retention time is 0.945 min. The same measure for `O=C(O)c1ccc(O)cc1` [4-HYDROXYBENZOATE]: 4.37 min. The value for `Cc1cc2c(C(C)C)c(O)c(O)c(C=O)c2c(O)c1-c1c(C)cc2c(C(C)C)c(O)c(O)c(C=O)c2c1O` [(-)-GOSSYPOL] was 8.49 min; that for `Cn1c(=O)[nH]c2[nH]c(=O)[nH]c2c1=O` [1-METHYLURIC ACID] was 1.21 min. `C[C@H](O)[C@@H](O)[C@H](O)[C@H](O)CO` [1-DEOXY-D-GLUCITOL]: the LC retention time was 0.959 min. The value for `CC1(O)CCOC(=O)C1` (stereo not given) [MEVALOLACTONE] was 3.33 min; that for `N#CC(OC1OC(COC2OC(CO)C(O)C(O)C2O)C(O)C(O)C1O)c1ccccc1` (stereo not given) [AMYGDALIN] was 3.78 min; that for `CC1OC(OCC2OC(Oc3cc(O)c4c(c3)OC(c3ccc(O)cc3)CC4=O)C(O)C(O)C2O)C(O)C(O)C1O` (stereo not given) [NARIRUTIN] was 4.59 min. For `Nc1ncnc2nc[nH]c12` [ADENINE], the LC retention time is 1.3 min. The same measure for `CC(=O)OCC(=O)C1CCC2C3CCC4=CC(=O)CCC4(C)C3CCC12C` (stereo not given) [DEOXYCORTICOSTERONE ACETATE]: 7.64 min; for `CS(=O)CCCN=C=S` (stereo not given) [3-METHYLSULFINYLPROPYL ISOTHIOCYANATE]: 4.1 min. For `CSCCC(=O)C(=O)O` [2-OXO-4-METHYLTHIOBUTANOIC ACID], the LC retention time was 3.7 min.

For `CCNC(=O)C1CC(C)CCC1C(C)C` (stereo not given) [N-ETHYL-5-METHYL-2-(1-METHYLETHYL)-CYCLOHEXANECARBOXAMIDE], the LC retention time was 7.41 min. The value for `CC(=O)OCC(=O)C1(O)CCC2C3CCC4=CC(=O)CCC4(C)C3C(O)CC21C` (stereo not given) [CORTISOL 21-ACETATE] was 6.92 min. The value for `O=C(O)c1ccc2ccccc2n1` [2-QUINOLINECARBOXYLATE] was 4.24 min; that for `CC(C)=CCCC(C)C1CCC2C3CC=C4CC(O)CCC4(C)C3CCC12C` (stereo not given) [DESMOSTEROL] was 9.25 min; that for `O=c1[nH]cnc2nc[nH]c12` [HYPOXANTHINE] was 1.76 min. The same measure for `Cc1ncc(CO)c(CO)c1O` [PYRIDOXINE]: 2.1 min; for `O=C1CCNC(=O)N1` [DIHYDROURACIL]: 1.37 min; for `CCCCCCC(O)CCCCCCCCCCC(=O)O` (stereo not given) [12-HYDROXYSTEARIC ACID]: 8.29 min. For the compound `O=C(O)C(O)CCO` (stereo not given) [2,4-DIHYDROXYBUTANOIC ACID], the LC retention time is 1.07 min.

For `Cc1cn(C2CC(O)C(CO)O2)c(=O)[nH]c1=O` (stereo not given) [THYMIDINE], the LC retention time was 3.56 min. Take `CCCCCC1CCCC(=O)O1` (stereo not given) [DELTA-DECALACTONE]: the LC retention time was 7.1 min. Regarding `Cn1c(=O)c2c([nH]c(=O)n2C)n(C)c1=O` [1,3,7-TRIMETHYLURIC ACID], the LC retention time was 3.23 min.

In the case of `Nc1ccccc1S(=O)(=O)O` [ANILINE-2-SULFONATE], the LC retention time was 2.54 min.

`NC(N)=S` [THIOUREA]: the LC retention time was 0.942 min. Regarding `NCCc1ccc(O)c(O)c1` [DOPAMINE], the LC retention time is 1.74 min. Turning to `CCCCCCCCCCCCCCCCCC(=O)NCCO` [STEAROYLETHANOLAMIDE], the LC retention time was 9.74 min. The same measure for `CC(=O)NC1C(O)OC(CO)C(O)C1OC(C)C(=O)O` (stereo not given) [N-ACETYLMURAMATE]: 1.09 min; for `O=C(O)/C=C/c1ccccc1` [TRANS-CINNAMATE]: 6.45 min; for `CC1OC(O)C(O)C(O)C1O` (stereo not given) [RHAMNOSE]: 0.913 min. In the case of `NCc1[nH]cc(CCC(=O)O)c1CC(=O)O` [PORPHOBILINOGEN], the LC retention time is 3.51 min. Consider `Oc1ccc(O)cc1` [HYDROQUINONE], for which the LC retention time is 4.46 min. For `O=Cc1ccc(O)c(O)c1` [3,4-DIHYDROXYBENZALDEHYDE], the LC retention time is 3.49 min. The same measure for `CC(=O)C1CCC2C3CC=C4CC(OS(=O)(=O)O)CCC4(C)C3CCC12C` (stereo not given) [PREGNENOLONE SULFATE]: 7.26 min; for `O=S(=O)(O)Oc1c[nH]c2ccccc12` [INDOXYL SULFATE]: 4.58 min.

`O=C(O)c1ccccc1O` [SALICYLATE]: the LC retention time is 5.97 min. Consider `CC(=O)NC1C(O)CC(O)(C(=O)O)OC1C(O)C(O)CO` (stereo not given) [N-ACETYLNEURAMINATE], for which the LC retention time is 0.9 min. The same measure for `Nc1ncnc2c1ncn2C1OC(COP(=O)([O-])OP(=O)([O-])OCC2OC(O)C(O)C2O)C(O)C1O` (stereo not given) [ADENOSINE DIPHOSPHATE RIBOSE]: 0.954 min.

Take `O=c1[nH]c(=O)c2[nH]cnc2[nH]1` [XANTHINE]: the LC retention time was 2.11 min. Consider `Nc1ncnc2c1ncn2C1OC(CO)C(O)C1O` (stereo not given) [ADENOSINE], for which the LC retention time is 3.28 min. The value for `O=C1OCC(Cc2cccc(O)c2)C1Cc1cccc(O)c1` (stereo not given) [ENTEROLACTONE] was 6.68 min. The same measure for `O=C(O)C1CCCCC1` [CYCLOHEXANECARBOXYLIC ACID]: 5.27 min.
